Reference: PubChem BioAssay (NCI)
Where “and” joins values, the source holds several entries; their conditions need not be identical. Identical values can stand only once.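 Method: 48-hour compound exposure of cells in 96-well plates, five concentrations, linear interpolation of endpoints. GI50 marks 50% less growth. At the TGI there is no net growth.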

Legend:
Experiment in all cases: DTP human tumour cell line panel, 48 h
SK-MEL-5 melanoma = tested on: SK-MEL-5 melanoma
U251 CNS = tested on: U251 CNS
PC-3 prostate = tested on: PC-3 prostate
DU-145 prostate = tested on: DU-145 prostate
HL-60(TB) leukemia = tested on: HL-60(TB) leukemia
NCI-H460 lung = tested on: NCI-H460 lung
786-0 renal = tested on: 786-0 renal
KM12 colon = tested on: KM12 colon
HOP-62 NSCLC = tested on: HOP-62 NSCLC
MDA-MB-435 = tested on: MDA-MB-435

Compound `CNC(=O)c1nn(C)c2c1C(C)(C)Cc1cnc(Nc3cccc(N4CCN(C)CC4)c3)nc1-2` has a GI50 (SK-MEL-5 melanoma) of 954 nM, a TGI (SK-MEL-5 melanoma) of 5.46 µM and a GI50 (U251 CNS) of 0.291 µM. The TGI (U251 CNS) was 12.8 µM, the GI50 (PC-3 prostate) was 0.189 µM and the TGI (PC-3 prostate) was 7.24 µM. It also gave a GI50 (DU-145 prostate) of 0.686 µM, a TGI (DU-145 prostate) of 14 µM and a GI50 (HL-60(TB) leukemia) of 596 nM. It also gave a TGI (HL-60(TB) leukemia) of 6.64 µM, a GI50 (NCI-H460 lung) of 303 nM and a TGI (NCI-H460 lung) of 11.8 µM. For the same compound, the GI50 (786-0 renal) was 0.398 µM, the TGI (786-0 renal) was 14.1 µM and the GI50 (KM12 colon) was 51.4 nM. The TGI (KM12 colon) was 3.43 µM, the GI50 (HOP-62 NSCLC) was 0.44 µM and the TGI (HOP-62 NSCLC) was 17.9 µM. It also gave a GI50 (MDA-MB-435) of 335 nM and a TGI (MDA-MB-435) of 11.8 µM.
`Cn1cc(C2=C(c3c4n(c5ccccc35)CCNC4)C(=O)NC2=O)c2ccccc21` was tested, and the GI50 (SK-MEL-5 melanoma) was 4820 nM, the TGI (SK-MEL-5 melanoma) was > 17.2 µM and the GI50 (U251 CNS) was 9.23 µM. For the same compound, the TGI (U251 CNS) was > 25 µM, the GI50 (PC-3 prostate) was 7.02 µM and the TGI (PC-3 prostate) was > 25 µM. The GI50 (DU-145 prostate) was 12.6 µM, the TGI (DU-145 prostate) was > 25 µM and the GI50 (HL-60(TB) leukemia) was 3920 nM. For the same compound, the TGI (HL-60(TB) leukemia) was > 25 µM, the GI50 (NCI-H460 lung) was 10600 nM and the TGI (NCI-H460 lung) was > 25 µM. The GI50 (786-0 renal) was 14.8 µM, the TGI (786-0 renal) was > 25 µM and the GI50 (KM12 colon) was 8630 nM. The TGI (KM12 colon) was > 25 µM, the GI50 (HOP-62 NSCLC) was 17.5 µM and the TGI (HOP-62 NSCLC) was > 25 µM. For the same compound, the GI50 (MDA-MB-435) was 991 nM and the TGI (MDA-MB-435) was > 17.1 µM.
In the case of `CC(=O)OCC12CN(C#N)C3C4COC(CC41)C1(C(=O)N(C)c4ccccc41)C32` (stereo not drawn), the TGI (SK-MEL-5 melanoma) is reported as 86.3 µM, the TGI (U251 CNS) is reported as > 100 µM and the TGI (PC-3 prostate) is reported as > 100 µM. The TGI (DU-145 prostate) was 37.7 µM, the TGI (HL-60(TB) leukemia) was 30.7 µM and the TGI (NCI-H460 lung) was 94.5 µM. The TGI (786-0 renal) was > 100 µM, the TGI (KM12 colon) was > 100 µM and the TGI (HOP-62 NSCLC) was 58.6 µM. For the same compound, the TGI (MDA-MB-435) was > 100 µM.
`CC(c1cc(Cl)ccc1O)c1cc(Cl)ccc1O` gave a GI50 (SK-MEL-5 melanoma) of 3410 nM, a TGI (SK-MEL-5 melanoma) of 10 µM and a GI50 (U251 CNS) of 3.93 µM. The TGI (U251 CNS) was 14.5 µM, the GI50 (PC-3 prostate) was 3.73 µM and the TGI (PC-3 prostate) was 15 µM. It also gave a GI50 (DU-145 prostate) of 5.2 µM, a TGI (DU-145 prostate) of 16.3 µM and a GI50 (HL-60(TB) leukemia) of 2550 nM. For the same compound, the TGI (HL-60(TB) leukemia) was 5.75 µM, the GI50 (NCI-H460 lung) was 2260 nM and the TGI (NCI-H460 lung) was 4.88 µM. For the same compound, the GI50 (786-0 renal) was 15.7 µM, the TGI (786-0 renal) was 36.1 µM and the GI50 (KM12 colon) was 3220 nM. The TGI (KM12 colon) was 10.2 µM, the GI50 (HOP-62 NSCLC) was 3.76 µM and the TGI (HOP-62 NSCLC) was 17.5 µM. For the same compound, the GI50 (MDA-MB-435) was 2320 nM and the TGI (MDA-MB-435) was 7.25 µM.
In the case of `O=[N+]([O-])c1ccc(/C=C/c2nc3ccc(Cl)cc3[nH]2)cc1`, the GI50 (SK-MEL-5 melanoma) is reported as 31600 nM, the TGI (SK-MEL-5 melanoma) is reported as > 100 µM and the GI50 (U251 CNS) is reported as 16.3 µM. For the same compound, the TGI (U251 CNS) was 35.3 µM, the GI50 (PC-3 prostate) was 21.8 µM and the TGI (PC-3 prostate) was > 100 µM. For the same compound, the GI50 (DU-145 prostate) was 19.4 µM, the TGI (DU-145 prostate) was 66.6 µM and the GI50 (HL-60(TB) leukemia) was > 100000 nM. The TGI (HL-60(TB) leukemia) was > 100 µM, the GI50 (NCI-H460 lung) was 17800 nM and the TGI (NCI-H460 lung) was 84.9 µM. The GI50 (786-0 renal) was 18.7 µM, the TGI (786-0 renal) was 43.3 µM and the GI50 (KM12 colon) was 5600 nM. The TGI (KM12 colon) was > 100 µM, the GI50 (HOP-62 NSCLC) was 37.7 µM and the TGI (HOP-62 NSCLC) was > 100 µM. The GI50 (MDA-MB-435) was 5360 nM and the TGI (MDA-MB-435) was > 100 µM.
Work on `O=C(/C=C/C12c3ccccc3C(c3ccccc31)C1C(=O)N(c3ccc(Cl)cc3)C(=O)C12)c1ccccn1` (stereo not drawn) yielded a GI50 (SK-MEL-5 melanoma) of 515 nM, a TGI (SK-MEL-5 melanoma) of 1.21 µM and a GI50 (U251 CNS) of 0.256 µM. It also gave a TGI (U251 CNS) of 0.74 µM, a GI50 (PC-3 prostate) of 0.331 µM and a TGI (PC-3 prostate) of 1.87 µM. It also gave a GI50 (DU-145 prostate) of 0.283 µM, a TGI (DU-145 prostate) of 0.747 µM and a GI50 (HL-60(TB) leukemia) of 240 nM. For the same compound, the TGI (HL-60(TB) leukemia) was 1.35 µM, the GI50 (NCI-H460 lung) was 232 nM and the TGI (NCI-H460 lung) was 0.568 µM. It also gave a GI50 (786-0 renal) of 0.194 µM, a TGI (786-0 renal) of 0.398 µM and a GI50 (KM12 colon) of 345 nM. For the same compound, the GI50 (HOP-62 NSCLC) was 0.405 µM, the TGI (HOP-62 NSCLC) was 2.22 µM and the GI50 (MDA-MB-435) was 301 nM. The TGI (MDA-MB-435) was 0.981 µM.
With `Cc1ccc(F)c(NC(=O)Nc2ccc(-c3cccc4[nH]nc(N)c34)cc2)c1` the GI50 (SK-MEL-5 melanoma) was 2880 nM, the TGI (SK-MEL-5 melanoma) was 8.56 µM and the GI50 (U251 CNS) was 3.49 µM and 3.16 µM. The TGI (U251 CNS) was 20.6 µM and > 10 µM, the GI50 (PC-3 prostate) was 4.18 µM and 4.54 µM and the TGI (PC-3 prostate) was 17.7 µM and > 10 µM. The GI50 (DU-145 prostate) was 3.68 µM and 3.37 µM, the TGI (DU-145 prostate) was 13.1 µM and > 10 µM and the GI50 (HL-60(TB) leukemia) was 1950 nM and 3290 nM. For the same compound, the TGI (HL-60(TB) leukemia) was 5.63 µM and > 10 µM, the GI50 (NCI-H460 lung) was 2420 nM and 2760 nM and the TGI (NCI-H460 lung) was 5.94 µM and 8.32 µM. For the same compound, the GI50 (786-0 renal) was 3.58 µM and 4.22 µM, the TGI (786-0 renal) was 18 µM and > 10 µM and the GI50 (KM12 colon) was 1640 nM and 1550 nM. The TGI (KM12 colon) was 4.94 µM and 5.79 µM, the GI50 (HOP-62 NSCLC) was 4.07 µM and 3.12 µM and the TGI (HOP-62 NSCLC) was 16.2 µM and > 10 µM. The GI50 (MDA-MB-435) was 2680 nM and 2880 nM and the TGI (MDA-MB-435) was 11 µM and > 10 µM.
In the case of `O=C(O)CCCCn1ccc(=O)[nH]c1=O`, the TGI (SK-MEL-5 melanoma) is reported as > 100 µM, the TGI (U251 CNS) is reported as > 100 µM and the TGI (PC-3 prostate) is reported as > 100 µM. For the same compound, the TGI (DU-145 prostate) was > 100 µM, the TGI (HL-60(TB) leukemia) was > 100 µM and the TGI (NCI-H460 lung) was > 100 µM. For the same compound, the TGI (786-0 renal) was > 100 µM, the TGI (KM12 colon) was > 100 µM and the TGI (HOP-62 NSCLC) was > 100 µM. For the same compound, the TGI (MDA-MB-435) was > 100 µM.
In the case of `COC(=O)c1ccc2nc(-c3cc4ccccc4n3C)n(CCCCOc3cc4c(cc3OC)C(=O)N3CCC[C@H]3C=N4)c2c1`, the GI50 (SK-MEL-5 melanoma) is reported as 1210 nM, the TGI (SK-MEL-5 melanoma) is reported as 2.48 µM and the GI50 (U251 CNS) is reported as 0.632 µM. It also gave a TGI (U251 CNS) of 2.08 µM, a GI50 (PC-3 prostate) of 0.457 µM and a TGI (PC-3 prostate) of 10.3 µM. For the same compound, the GI50 (DU-145 prostate) was 0.234 µM, the TGI (DU-145 prostate) was 0.564 µM and the GI50 (HL-60(TB) leukemia) was 273 nM. It also gave a GI50 (NCI-H460 lung) of 561 nM, a TGI (NCI-H460 lung) of 1.55 µM and a GI50 (786-0 renal) of 0.789 µM. For the same compound, the TGI (786-0 renal) was 2.46 µM, the GI50 (KM12 colon) was 255 nM and the TGI (KM12 colon) was 0.787 µM. For the same compound, the GI50 (HOP-62 NSCLC) was 0.905 µM, the TGI (HOP-62 NSCLC) was 3.76 µM and the GI50 (MDA-MB-435) was 677 nM. The TGI (MDA-MB-435) was 1.77 µM.
